According to patent publication US20240262848A1, “HETEROCYCLIC COMPOUNDS, COMPOSITIONS THEREOF, AND METHODS OF TREATMENT THEREWITH” (BeiGene, Ltd., priority 2022, published 2024):

Key:
[1] = test system: pERK1/2(THR202/TYR204) level in SW620 cell line; experiment: KRAS G12V pERK assay in SW620 cells (HTRF); type: cell-based; details: Homo sapiens, SW-620, Table 4, 2 hrs compound treatment
Description: SW620 cell line was used in this study. Cells were maintained in RPMI 1640 supplemented with 10% fetal bovine serum (Thermo Fisher), 50 units/mL penicillin and streptomycin (Thermo Fisher) and kept at 37° C. in a humidified atmosphere of 5% CO2 in air. Cells were reinstated from frozen stocks that were laid down within 30 passages from the original cells purchased. 40000 cells per well were seeded into a 96-well plate and incubated overnight. Cells were treated with a 10-point dilution series. The final compound concentration is from 0 to 10 μM. After 2 hrs compound treatment, cells were lysed, and the pERK1/2(THR202/TYR204) level in the cell lysates was detected by HTRF kit (Cisbio). In brief, a total of 16 μL of cell lysate from each well of a 96-well plate was transferred to a 384-well white assay plate. Lysate from each well was incubated with 2 μL of Eu3+-cryptate (donor) labeled anti-phospho-ERK1/2 and 2 μL of D)2 (acceptor) labeled anti-phospho-ERK1/2 antibodies (Cisbio) overnight in dark at room temperature. When donor and acceptor are in close proximity, excitation of the donor with laser triggers a Fluorescence Resonance Energy Transfer (FRET) towards the acceptor, which in turn fluoresces at 655 nm wavelength. FRET signals were measured using a PHERAstar FSX reader (BMG Labtech). IC50 determination was performed by fitting the curve of percent inhibition versus the log of the inhibitor concentration using Dotmatics.

[2] = target: GST-tagged GDP-loaded KRAS G12V (amino acids 1-169) (Homo sapiens, UniProt P01116, G12V); experiment: KRAS G12V probe displacement assay (TR-FRET); type: binding; details: Table 4; KRAS G12V 2 nM, biotinylated probe 2 2.5 nM
Chain of GST-tagged GDP-loaded KRAS G12V (amino acids 1-169) (P01116 1-169 isoform P01116-2 G12V): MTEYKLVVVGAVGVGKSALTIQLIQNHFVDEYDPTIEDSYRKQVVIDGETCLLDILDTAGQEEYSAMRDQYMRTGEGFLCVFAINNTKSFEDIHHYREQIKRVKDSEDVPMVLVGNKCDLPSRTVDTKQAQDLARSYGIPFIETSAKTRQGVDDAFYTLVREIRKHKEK
Description: Plates are incubated at 24 °C for 1 hr. […] After 1 hr incubation at 24° C.

CN1c2nc(OC[C@@]34CCCN3C[C@H](F)C4)nc3c(F)c(-c4cc(N)cc(Cl)c4C(F)(F)F)nc(c23)OC[C@H]2COC[C@@H]21 (single isomer, unassigned) [Example 68 Isomer 1]
IC50 [1]: 51 nM | IC50 [2]: 1.8 nM

CN1c2nc(OC[C@@]34CCCN3C[C@H](F)C4)nc3c(F)c(-c4cc(N)c(F)c(Cl)c4C(F)(F)F)nc(c23)O[C@H]2COCC[C@@H]21 [Example 66, 3-chloro-2-fluoro-5-((7aR,11aS)-4-fluoro-2-(((2R,7aS)-2-fluorotetrahydro-1H-pyrrolizin-7a(5H)-yl)methoxy)-12-methyl-7a, 8,10,11,11a, 12-hexahydro-7,9-dioxa-1,3,6,12-tetraazapleiaden-5-yl)-4-(trifluoromethyl)aniline]
IC50 [1]: 5.8 nM | IC50 [2]: 0.47 nM

CCN1c2nc(OC[C@@]34CCCN3C[C@H](F)C4)nc3c(F)c(-c4cc(N)cc(C)c4C(F)(F)F)nc(c23)OCCC12COC2 [Example 56, 3-(11-ethyl-4-fluoro-2-(((2R,7aS)-2-fluorotetrahydro-1H-pyrrolizin-7a(5H)-yl)methoxy)-8,9-dihydro-11H-7-oxa-1,3,6,11-tetraazaspiro[cycloocta[de]naphthalene-10,3′-oxetan]-1(11a), 2,3a, 3a^1(6a),5-pentaen-5-yl)-5-methyl-4-(trifluoromethyl)aniline]
IC50 [1]: 33 nM | IC50 [2]: 1.2 nM

CCc1c(F)ccc2cc(O)cc(-c3nc4c5c(nc(OC[C@@]67CCCN6C[C@H](F)C7)nc5c3F)N(C)C(C)CCO4)c12 (stereo partly drawn) [Example 16, 5-ethyl-6-fluoro-4-(4-fluoro-2-(((2R,7aS)-2-fluorotetrahydro-1H-pyrrolizin-7a(5H)-yl)methoxy)-10,11-dimethyl-8,9,10,11-tetrahydro-7-oxa-1,3,6,11-tetraazacycloocta[de]naphthalen-5-yl)naphthalen-2-ol]
IC50 [1]: 50 nM | IC50 [2]: 1.4 nM

CN1CCCOc2nc(-c3cc(N)cc(Cl)c3C(F)(F)F)c(F)c3nc(OC[C@@]45CCCN4C[C@H](F)C5)nc1c23 [Example 9, 3-chloro-5-(4-fluoro-2-(((2R,7aS)-2-fluorotetrahydro-1H-pyrrolizin-7a(5H)-yl)methoxy)-11-methyl-8,9,10,11-tetrahydro-7-oxa-1,3,6,11-tetraazacycloocta[de]naphthalen-5-yl)-4-(trifluoromethyl)aniline]
IC50 [1]: 249 nM | IC50 [2]: 5.2 nM

C[C@@H]1CCOc2nc(-c3cc(N)cc(Cl)c3C(F)(F)F)c(F)c3nc(OC[C@@]45CCCN4C[C@H](F)C5)nc(c23)N1C [Example 26, 3-chloro-5-((R)-4-fluoro-2-(((2R,7aS)-2-fluorotetrahydro-1H-pyrrolizin-7a(5H)-yl)methoxy)-10,11-dimethyl-8,9,10,11-tetrahydro-7-oxa-1,3,6,11-tetraazacycloocta[de]naphthalen-5-yl)-4-(trifluoromethyl)aniline]
IC50 [1]: 32 nM | IC50 [2]: 0.79 nM

CN1c2nc(OC[C@@]34CCCN3C[C@H](F)C4)nc3c(F)c(-c4cc(N)cc(Cl)c4C(F)(F)F)nc(c23)O[C@H]2CCCC[C@@H]21 [Example 46, 3-chloro-5-((7aS,11aS)-4-fluoro-2-(((2R,7aS)-2-fluorotetrahydro-1H-pyrrolizin-7a(5H)-yl)methoxy)-12-methyl-7a, 8,10,11,11a, 12-hexahydro-9H-7-oxa-1,3,6,12-tetraazapleiaden-5-yl)-4-(trifluoromethyl)aniline]
IC50 [1]: 37 nM | IC50 [2]: 0.48 nM

CN1c2nc(OC[C@@]34CCCN3C[C@H](F)C4)nc3c(F)c(-c4cc(N)cc(Cl)c4C(F)(F)F)nc(c23)O[C@H]2CCOC[C@@H]21 [Example 50, 3-chloro-5-((7aS,11aS)-4-fluoro-2-(((2R,7aS)-2-fluorotetrahydro-1H-pyrrolizin-7a(5H)-yl)methoxy)-12-methyl-7a, 8,11a, 12-tetrahydro-9H, 11H-7,10-dioxa-1,3,6,12-tetraazapleiaden-5-yl)-4-(trifluoromethyl)aniline]
IC50 [1]: 28 nM | IC50 [2]: 0.61 nM

CN1c2nc(OC[C@@]34CCCN3C[C@H](F)C4)nc3c(F)c(-c4cc(N)cc(Cl)c4C(F)(F)F)nc(c23)OC[C@H]2CCC[C@H]21 [Example 52, 3-chloro-5-((8aS,11aR)-4-fluoro-2-(((2R,7aS)-2-fluorotetrahydro-1H-pyrrolizin-7a(5H)-yl)methoxy)-12-methyl-8a, 9,10,11,11a, 12-hexahydro-8H-7-oxa-1,3,6,12-tetraazacyclopenta[5,6]cycloocta[1,2,3-de]naphthalen-5-yl)-4-(trifluoromethyl)aniline]
IC50 [1]: 158 nM | IC50 [2]: 6.5 nM

CCN1c2nc(OC[C@@]34CCCN3C[C@H](F)C4)nc3c(F)c(-c4cc(N)cc(Cl)c4C(F)(F)F)nc(c23)O[C@H]2COCC[C@@H]21 [Example 58, 3-chloro-5-((7aR,11aS)-12-ethyl-4-fluoro-2-(((2R,7aS)-2-fluorotetrahydro-1H-pyrrolizin-7a(5H)-yl)methoxy)-7a, 8,10,11,11a, 12-hexahydro-7,9-dioxa-1,3,6,12-tetraazaplciaden-5-yl)-4-(trifluoromethyl)aniline]
IC50 [1]: 29 nM | IC50 [2]: 0.49 nM

C#Cc1c(F)ccc2cc(O)cc(-c3nc4c5c(nc(OC[C@@]67CCCN6C[C@H](F)C7)nc5c3F)N(C3CCC3)CCCO4)c12 [Example 13, 4-(11-cyclobutyl-4-fluoro-2-(((2R,7aS)-2-fluorotetrahydro-1H-pyrrolizin-7a(5H)-yl)methoxy)-8,9,10,11-tetrahydro-7-oxa-1,3,6,11-tetraazacycloocta[de]naphthalen-5-yl)-5-ethynyl-6-fluoronaphthalen-2-ol]
IC50 [1]: 141 nM | IC50 [2]: 1.4 nM

CN1c2nc(OC[C@@]34CCCN3C[C@H](F)C4)nc3c(F)c(-c4cc(N)cc(Cl)c4C(F)(F)F)nc(c23)OCC12CC2 [Example 29, 3-chloro-5-(4-fluoro-2-(((2R,7aS)-2-fluorotetrahydro-1H-pyrrolizin-7a(5H)-yl)methoxy)-10-methyl-8H, 10H-7-oxa-1,3,6,10-tetraazaspiro[cyclohepta[de]naphthalene-9,1′-cyclopropan]-1(10a), 2,3a, 3 al(6a), 5-pentaen-5-yl)-4-(trifluoromethyl)aniline]
IC50 [1]: 56 nM | IC50 [2]: 0.95 nM

Nc1cc(Cl)c(C(F)(F)F)c(-c2nc3c4c(nc(OC[C@@]56CCCN5C[C@H](F)C6)nc4c2F)N(C2CC2)CCO3)c1 [Example 8, 3-chloro-5-(10-cyclopropyl-4-fluoro-2-(((2R,7aS)-2-fluorotetrahydro-1H-pyrrolizin-7a(5H)-yl)methoxy)-9,10-dihydro-8H-7-oxa-1,3,6,10-tetraazacyclohepta[de]naphthalen-5-yl)-4-(trifluoromethyl)aniline]
IC50 [1]: 716 nM | IC50 [2]: 9.9 nM

CCN1c2nc(OC[C@@]34CCCN3C[C@H](F)C4)nc3c(F)c(-c4cc(N)cc(C)c4C(F)(F)F)nc(c23)OCCC12CC2 [Example 54, 3-(11-ethyl-4-fluoro-2-(((2R,7aS)-2-fluorotetrahydro-1H-pyrrolizin-7a(5H)-yl)methoxy)-8,9-dihydro-11H-7-oxa-1,3,6,11-tetraazaspiro[cycloocta[de]naphthalene-10,1′-cyclopropan]-1(11a), 2,3a, 3a^1(6a), 5-pentaen-5-yl)-5-methyl-4-(trifluoromethyl)aniline]
IC50 [1]: 51 nM | IC50 [2]: 1.7 nM

CC1CC(C)N(C)c2nc(OC[C@@]34CCCN3C[C@H](F)C4)nc3c(F)c(-c4cc(N)cc(Cl)c4C(F)(F)F)nc(c23)O1 (stereo partly drawn) [Example 21, 3-chloro-5-(4-fluoro-2-(((2R,7aS)-2-fluorotetrahydro-1H-pyrrolizin-7a(5H)-yl)methoxy)-8,10,11-trimethyl-8,9,10,11-tetrahydro-7-oxa-1,3,6,11-tetraazacycloocta[de]naphthalen-5-yl)-4-(trifluoromethyl)aniline]
IC50 [1]: 26 nM | IC50 [2]: 1.7 nM

CN1c2nc(OC[C@@]34CCCN3C[C@H](F)C4)nc3c(F)c(-c4ccc(F)c5sc(N)c(C#N)c45)c(Cl)c(c23)OCC12COC2 [Example 18, 2-amino-4-(8′-chloro-10′-fluoro-2′-(((2R,7aS)-2-fluorotetrahydro-1H-pyrrolizin-7a(5H)-yl)methoxy)-4′-methyl-4′H, 6′H-spiro[oxetane-3,5′-[1,4]oxazepino[5,6,7-de]quinazolin]-9′-yl)-7-fluorobenzo[b]thiophene-3-carbonitrile]
IC50 [1]: 55 nM | IC50 [2]: 0.84 nM

CC1COc2nc(-c3cc(N)cc(Cl)c3C(F)(F)F)c(F)c3nc(OC[C@@]45CCCN4C[C@H](F)C5)nc(c23)N(C)C1 (stereo partly drawn) [Example 15, 3-chloro-5-(4-fluoro-2-(((2R,7aS)-2-fluorotetrahydro-1H-pyrrolizin-7a(5H)-yl)methoxy)-9,11-dimethyl-8,9,10,11-tetrahydro-7-oxa-1,3,6,11 tetraazacycloocta[de]naphthalen-5-yl)-4-(trifluoromethyl)aniline]
IC50 [1]: 371 nM | IC50 [2]: 8.6 nM
